According to patent publication US5801150A, “Aminopyri(mi)dine derivatives combined with amino acids, and pharmacological activities thereof” (priority 1993, dated 1998):

Key:
[1] = Capture of the hydroxyl radical: Fenton reaction, oxidative degradation of deoxyribose (532 nm); type: biochemical; details: for k Obtained (speed constant of the reaction with OH°): individual values of 2 or 3 tests; for k Obtained (speed constant of the reaction with OH°) / Mean k (speed constant of the reaction with OH°): pH 7.4, 37° C.; for Mean k (speed constant of the reaction with OH°): mean of 2 or 3 tests; for speed constant with respect to mannitol: ratio to mannitol
Source text: The Fenton reaction, the catalytic decomposition of hydrogen peroxide (H2 O2) by the action of Fe^2+, has been used to produce the hydroxyl radical Because of its widespread use, the test of oxidative degradation of deoxyribose has been selected for our study. The hydroxyl radical generated by the Fenton reaction degrades the deoxyribose and produces malonaldehyde which forms a colored complex with thiobarbituric acid. This complex is quantified by colorimetry at a wavelength of 532 nm. This methodology can be represented by the following scheme: [drawing 11] The speed constants have been determined by using the Halliwell method with modifications. The final kinematic equation is the following [formula] A and A0 : absorbances at 532 nm of the complex in the presence and in the absence of the studied derivative. kS and kd : speed constants of the reaction of OH° with the studied derivative and deoxyribose. S and D: concentrations of studied derivative and of deoxyribose. kx : term representing the reactivity of the radical OH° reacting with reagents of the Fenton reaction. In tracing the straight line 1/A as a function of the concentration S, the speed constant kS is determined. […] The reaction is initiated by the addition of the iron EDTA complex (0.13 mM (NH4)2 Fe(SO4)2; 0.143 mM EDTA). After 15 mins. of incubation at 37° C., the reaction is stopped by the addition of 1.5 ml of cold trichloroacetic acid (TCA) (2.8%). 1 ml of this solution is mixed with 1 ml of thiobarbituric acid (TBA) (1% in 0.05M NaOH) and heated for 15 mins. at 100° C. Then, the specimens are cooled and quantified at 532 nm.

[2] = literature value; cited from earlier work
[3] = Sensing superoxide anion: auto-oxidation of adrenaline (adrenochrome at 480 nm); type: biochemical; details: for % of inhibition: pH 10.2; for IC50: superoxide anion, adrenaline auto-oxidation, read-out: concentration at which there is obtained 50% inhibition
Source text: The methods used can produce selectively a chosen type of FR (superoxide anion or hydroxyl radical). The detector must be able to detect proportionally all the FR formed.
Step of production and detection of FR: the radicular source supplies the free radical which will react with a detector to form a modified detector. This latter could be quantified directly or after interaction with an analytic reaction complement by spectrophotometric analysis. [drawing 9]
Determination either of the percent of sensing or of the speed constant of the sensor: a sensor enters into competition with the detector to form a modified sensor. There is obtained a reduction of the quantity of the modified detector which gives us, after mathematical analysis, either the speed constant of the reaction of the sensor with the radical, or the percentage of sensing of this radical by the sensor.
The methodology is the auto-oxidation of adrenaline: adrenaline plays the double role of producing superoxide anion and serving as a detector. Adrenaline which is stable at acid pH, oxidizes spontaneously at alkaline pH. This complex reaction gives after several steps, adrenochrome. The superoxide anion participates in it as an oxidizing agent. The formation of adrenochrome is followed at 480 nm. [drawing 10] Capture of the superoxide anion: oxidation of adrenaline
The reaction medium is constituted by 3.1 ml of sodium carbonate (0.05M) at pH 10.2 containing EDTA (0.1 mM). The oxidation reaction is initiated by the addition of 0.2 ml of adrenaline (0.01M, in 0.02N HCl). The formation of adrenochrome is followed for 2 mins. at 480 nm. The compounds to be studied are added with the aide of 0.02 ml of DMSO, before the addition of adrenaline.
The capacity of the substances to sense the superoxide anion is expressed in terms of percentage of inhibition (%I). [formula] A0 and A are respectively the absorbance of the detector modified in the absence and in the presence of the derivative studied.

[4] = apart from SOD; cited from earlier work
[5] = topical application, cited from earlier work
keratinocytes, hair = details: topical, cited from earlier work

Compound	k Obtained (speed constant of the reaction with OH°) [1]	Mean k (speed constant of the reaction with OH°) [1]	Literature k (speed constant of the reaction with OH°) [2]	IC50 [3] [µM]	% of inhibition ([3]; Conc. 0.1 mM) [%]	% of inhibition ([3]; Conc. 0.2 mM) [%]	% of inhibition ([3]; Conc. 0.3 mM) [%]	% of inhibition ([3]; Conc. 0.5 mM) [%]	% of inhibition ([3]; Conc. 0.6 mM)	further results
Nc1cc(N2CCCCC2)nc(N)n1 [Reduced minoxidil]	8.47-9.16 10^9 M^-1.s^-1	8.81 10^9 M^-1.s^-1								speed constant with respect to mannitol [1]: five times
CSCC[C@H](N)C(=O)O [Methionine]	5.02-5.36 10^9 M^-1.s^-1	5.19 10^9 M^-1.s^-1	6.5 10^9 M^-1.s^-1							
N[C@@H](CS)C(=O)O [cysteine]				~51						% of inhibition ([3]; cysteine 0.005 mM): 6.52%; % of inhibition ([3]; cysteine 0.008 mM): 8.58%; % of inhibition ([3]; cysteine 0.01 mM): 9.61%; % of inhibition ([3]; cysteine 0.03 mM): 31.72%; % of inhibition ([3]; cysteine 0.04 mM): 34.45%; % of inhibition ([3]; cysteine 0.05 mM): 46.71%; % of inhibition ([3]; cysteine 0.06 mM): 51.93%; % of inhibition ([3]; cysteine 0.07 mM): 57.17%; reactivity with respect to the superoxide anion [4]: most reactive with respect to the superoxide anion
Nc1cc(N2CCCCC2)nc(N)[n+]1[O-] [Minoxidil, 2,4-diamino-6-piperidinopyrimidine-3-oxide]	10.20-11.40 10^9 M^-1.s^-1	10.80 10^9 M^-1.s^-1		~250	25.62	41.86	57.20	74.12	82.70%	average quantity of the applied dose reaching the blood stream ([5]; average): 1.4%; quantity of the applied dose reaching the blood stream, range ([5]; range of values): 0.3 to 4.5%; % of inhibition ([3]; Conc. 0.05 mM): 11.71%; growth of keratinocytes and of hair (keratinocytes, hair; certain subjects having androgenic alopecy): stimulates the in vitro and in vivo growth of keratinocytes, and the growth of hair; time of use to appearance of the growth phenomenon (keratinocytes, hair; varies as a function of the subjects): about four months (or more)
CSCC[C@H](NC(C)=O)C(=O)O [N-acetyl-methionine]		6.02 10^9 M^-1.s^-1	6.7 10^9 M^-1.s^-1						not observed activity	inhibition ([3]; 2 mM): 10%
CSCCC(NC(C)=O)C(=O)Nc1cc(N2CCCCC2)nc(N)[n+]1[O-] (racemic) [Monosubstituted (N-acetyl-methionine), amide of 2,4-diamino-6-piperidinopyrimidine-3-oxide and N-acetyl-D,L-methionine]	13.10-13.40 10^9 M^-1.s^-1	13.25 10^9 M^-1.s^-1			7.57	14.49	19.38	27.17	32.01%	% of inhibition ([3]; Conc. 0.4 mM): 25.71%; % of inhibition ([3]; Conc. 0.6 mM, listed as monosubstituted compound): 32%
OC[C@@H](O)[C@@H](O)[C@H](O)[C@H](O)CO [Mannitol]	1.52-1.84 10^9 M^-1.s^-1	1.68 10^9 M^-1.s^-1	1.8 10^9 M^-1.s^-1							
CSCCC(NC(C)=O)C(=O)Nc1cc(N2CCCCC2)nc(NC(=O)C(CCSC)NC(C)=O)[n+]1[O-] (racemic) [Disubstituted (N-acetyl-methionine), diamide of 2,4-diamino-6-piperidinopyrimidine-3-oxide and N-acetyl-D,L-methionine]	19.40-19.50 10^9 M^-1.s^-1	19.45 10^9 M^-1.s^-1		~670	10.56	15.62	25.99	38.71	43.75%	speed constant with respect to mannitol [1]: more than eleven times; % of inhibition ([3]; Conc. 0.4 mM): 30.77%; % of inhibition ([3]; Conc. 0.7 mM): 53.22%
